Test results published in ChEMBL document CHEMBL1201862, “PubChem BioAssay data set” (2004).
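Results reflect a 48-hour exposure of cells in 96-well plates to compound at five concentrations. GI50 marks 50% less growth.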 The source made the active and inactive calls. No stated cut-off is given here; in the data, active = GI50 up to about 1.1 µM and inactive = higher.

Columns and labels:
Experiment in all cases: growth of human tumour cells (NCI), 48 h
MOLT-4 = test system: MOLT-4
SK-OV-3 = test system: SK-OV-3
SN12C = test system: SN12C
SNB-75 = test system: SNB-75
OVCAR-5 = test system: OVCAR-5
Malme-3M = test system: Malme-3M
T47D = test system: T47D
NCI/ADR-RES = test system: NCI/ADR-RES
SK-MEL-2 = test system: SK-MEL-2
SF-539 = test system: SF-539
UO-31 = test system: UO-31
Hs-578T = test system: Hs-578T
TK-10 = test system: TK-10
SW-620 = test system: SW-620
A498 = test system: A498
RPMI-8226 = test system: RPMI-8226
HCC 2998 = test system: HCC 2998

Measured: GI50

O=C1C=CC(=NNc2ccccc2)C=CC1=O
inactive: MOLT-4 3.1 µM | SK-OV-3 26 µM | SN12C 16.7 µM | SNB-75 16.3 µM | OVCAR-5 20.8 µM | Malme-3M 13.4 µM | T47D 10.2 µM | NCI/ADR-RES 11.6 µM | SK-MEL-2 15.1 µM | SF-539 16 µM | UO-31 17.8 µM | Hs-578T 11 µM | TK-10 22.3 µM | SW-620 6.58 µM

ClCc1nc2ccccc2[nH]1
inactive: MOLT-4 54 µM | SN12C > 100 µM | A498 > 100 µM | SNB-75 66.8 µM | OVCAR-5 > 100 µM | Malme-3M 34.5 µM | T47D > 100 µM | NCI/ADR-RES > 100 µM | SK-MEL-2 > 100 µM | RPMI-8226 > 100 µM | SF-539 > 100 µM | HCC 2998 > 100 µM | UO-31 > 100 µM | Hs-578T > 100 µM | TK-10 > 100 µM | SW-620 > 100 µM

CC12CCC(/C(=N/c3cc(C(F)(F)F)cc(C(F)(F)F)c3)C1=O)C2(C)C (stereo not given)
inactive: MOLT-4 17.4 µM | SK-OV-3 > 100 µM | A498 22.3 µM | OVCAR-5 56.4 µM | Malme-3M 33.4 µM | T47D 19.8 µM | NCI/ADR-RES 44.3 µM | SK-MEL-2 18.8 µM | RPMI-8226 17.8 µM | SF-539 22.9 µM | HCC 2998 26.3 µM | UO-31 52 µM | TK-10 37.2 µM | SW-620 28.1 µM

Cc1ccc2nc(-c3ccc(N)c(I)c3)sc2c1
inactive: MOLT-4 10.4 µM | SK-OV-3 38.2 µM | A498 20.4 µM | SNB-75 41.5 µM | OVCAR-5 35.9 µM | Malme-3M 36.1 µM | NCI/ADR-RES 72.3 µM | SK-MEL-2 17.9 µM | SF-539 23.3 µM | HCC 2998 6.75 µM | UO-31 7.06 µM | Hs-578T 31 µM | SW-620 20.9 µM
active: TK-10 0.39 µM

Cc1cc2ccccc2n2c1nc1ccc(O)cc12
inactive: MOLT-4 5.69 µM | SK-OV-3 > 10 µM | SN12C 9.35 µM | SNB-75 5 µM | OVCAR-5 > 10 µM | Malme-3M > 10 µM | T47D > 10 µM | NCI/ADR-RES > 10 µM | SK-MEL-2 > 10 µM | RPMI-8226 > 10 µM | SF-539 > 10 µM | HCC 2998 > 10 µM | Hs-578T > 10 µM | TK-10 > 10 µM | SW-620 > 10 µM

CCOC(=O)c1c(N2CCOCC2)[nH]c(=O)c(C(c2ccc(N(C)C)cc2)c2c(O)c(C(=O)OCC)c(N3CCOCC3)[nH]c2=O)c1O
inactive: MOLT-4 > 100 µM | SK-OV-3 > 100 µM | SN12C > 100 µM | A498 > 100 µM | SNB-75 > 100 µM | OVCAR-5 > 100 µM | Malme-3M > 100 µM | T47D > 100 µM | NCI/ADR-RES > 100 µM | SK-MEL-2 > 100 µM | RPMI-8226 46.6 µM | SF-539 > 100 µM | HCC 2998 > 100 µM | UO-31 > 100 µM | Hs-578T > 100 µM | TK-10 > 100 µM | SW-620 > 100 µM

CC(O[Si](C)(C)C(C)(C)C)[C@H](NC(=O)OCC(Cl)(Cl)Cl)C(=O)O (stereo not given in full)
inactive: MOLT-4 > 100 µM | SK-OV-3 > 100 µM | SN12C > 100 µM | A498 > 100 µM | OVCAR-5 > 100 µM | Malme-3M > 100 µM | T47D > 100 µM | NCI/ADR-RES > 100 µM | RPMI-8226 84.7 µM | SF-539 > 100 µM | HCC 2998 > 100 µM | UO-31 > 100 µM | Hs-578T > 100 µM | TK-10 > 100 µM | SW-620 > 100 µM
